Results taken from US6256527A, “Method for determining oxygen concentration” (Nycomed Imaging AS, priority 1995, dated 2001).
Values belong to the compound of their own block, whether it stands above or below them.

How the values were obtained:
Format in all cases: physicochemical
[1] = ESR line widths of nitroxides in degassed benzene
Excerpt: The ESR-spectral properties of a series of partially and fully deuterated nitroxides (compounds 3b-d) also useful in the method of the invention have been investigated. These radicals are derived from 2,5-di-t-butyl-3,4-dimethoxycarbonyl-pyrryloxyl (Compound 3a) and were investigated alongside Tempone (4-oxo-2,2,6,6-tetramethyl-piperidine-1-oxyl, 1) and CTPO (3-carbamoyl-2,2,5,5-tetramethyl-pyrroline-1-yloxyl, 2a) which are typical examples of nitroxides frequently used for imaging purposes.
Instrumentation. The ESR-spectra were recorded by the Upgrade Version ESP 3220-200SH of a Bruker ER-200D SRC instrument at 22°. The radical concentration was in the range 0.1-0.2 mM and the modulation amplitude was 10 mG. The microwave power was well below saturation. NMR-spectra were recorded on a Varian XL-300 spectrometer. Mass spectra were recorded on a VG Quattor II instrument equipped with ESPC electrospray. GLC analyses were performed on a HP 5830 ser II instrument, equipped with a fused-silica column (30 m, 0.25 μm, HP-1701). TLC analyses and column chromotographic separations were performed on Silica Gel 60, using heptane/ether as the eluent.
Preparation of pyrryloxyl radicals. To a degassed solution of 2 mg of the hydroxylamine 7a-7d in 2 ml of benzene was added ca. 10 mg NiOOH. After 5 min the suspension was filtered and the pale green blue solution was diluted with degassed benzene in order to obtain a solution suitable for ESR.
ESR-measurements. Summarised in Table 5 are the ESR line widths for the nitroxides discussed above. […] Perdeuteration results in a reduction of the line width by a factor of 2.2 for 1 and of 2.5 for 2b. […] The spin density distributions, nitrogen coupling constants and intrinsic line widths for 3d are compared in Table 6 to other nitroxides.

[2] = ESR linewidth of trityl radicals (synthesis examples); conditions: singlet
[3] = Overhauser enhancement of trityl radicals (synthesis examples)
[4] = Stability measurements: half life without exclusion of air
[5] = Relaxivity from NMRD profiles in water, plasma and blood; conditions: for Relaxivity: water
Procedure: (§1) The following four water soluble, single ESR line trityls were investigated by NMRD, Dynamic Nuclear Polarisation (DNP) and ESR (Examples 1-4).
(§2) The relaxivity and DNP enhancement data were measured in water, plasma and blood at 23° C. and 37° C. The results are set out in Tables 1 and 2.

[6] = DNP (Overhauser) enhancement and DNP-curve relaxivity at infinite concentration and power; conditions: for A. (enhancement at infinite concentration and power): water
Excerpt: The calibration data are generated by determining Overhauser enhancement values for the radical in the selected body fluid, at the selected temperature and at a range of oxygen (and preferably also radical) concentrations. The intrinsic esr relaxation times for the radical can be determined, under the same conditions, using a conventional esr spectrometer equipped with a temperature controller, with oxygen concentration being determined using the method of Ravin et al J. Appl. Physiol. 18:784-790(1964), a method known to produce accurate and reproducible results.
as §1, §2

[7] = Electron spin relaxation rates (radical concentration dependent) from CW ESR spectra and DNP data
Procedure: as §1
Electron spin relaxation rates were measured by analysis of CW ESR spectra and DNP data at 23° C. and 37° C. in water, isotonic saline, plasma and blood for the deuterated hydroxy trityl and in water and isotonic saline for the perdeuterated and symmetric trityl.

[8] = Oxygen sensitivity at 260 MHz by ESR and DNP in water and blood; conditions: for Lorentzian line broadening by oxygen: 260 MHz
Procedure: The oxygen sensitivity of the deuterated hydroxy trityl was examined at 260 MHz in water and blood at 23° C. and 37° C. by ESR and DNP. The desired oxygen partial pressures were obtained in a simple shaking tonometer. The sample of 1-2 ml volume was shaken with a water saturated gas mixture flowing slowly above the sample for 5 min. The sample and gas was in a water bath maintaining the temperature. The gas mixtures were of high purity, chemically analysed. The Lorentzian line broadenings are 511 and 369 mG/mMo2 in water at 37° C. and 23° C. respectively and 329 mG/mMo2 in blood at 23° C.

[9] = water (isotonic saline), 23° C.
[10] = water (isotonic saline), 37° C.

Compound: CC1(C)CC(=O)CC(C)(C)N1[O] [Compound 1, 4-oxo-2,2,6,6-tetramethyl-piperidine-1-oxyl, reference compound]
ESR Line width ([1]; benzene, 23° C.): 602 mg | reduction of the line width by perdeuteration (factor) ([1]; degassed benzene, 22° C.): 2.2

Compound: [2H]C([2H])([2H])C1(C([2H])([2H])[2H])N([O])C(C([2H])([2H])[2H])(C([2H])([2H])[2H])C([2H])([2H])C(=O)C1([2H])[2H] [Compound 1-d16, 4-oxo-2,2,6,6-tetramethyl-piperidine-d16-1-oxyl, reference compound]
ESR Line width ([1]; benzene, 23° C.): 266 mg

Compound: CC1(C)C=C(C(=O)O)C(C)(C)N1[O] [Compound 2b, 2,2,5,5-tetramethyl-3-pyrrolin-1-oxyl-3-carboxylic acid, reference compound]
ESR Line width ([1]; benzene, 23° C.): 1032 mg | reduction of the line width by perdeuteration (factor) ([1]; degassed benzene, 22° C.): 2.5

Compound: [2H]C1=C(C(=O)O)C(C([2H])([2H])[2H])(C([2H])([2H])[2H])N([O])C1(C([2H])([2H])[2H])C([2H])([2H])[2H] [Compound 2b-d13, 2,2,5,5-tetramethyl-3-pyrrolin-d13-oxyl-3-carboxylic acid, reference compound]
ESR Line width ([1]; benzene, 23° C.): 407 mg

Compound: COC(=O)c1c(C(=O)OC)c(C(C)(C)C)n([O])c1C(C)(C)C [Compound 3a, 2,5-di-t-butyl-3,4-dimethoxycarbonyl-pyrryloxyl]
ESR Line width ([1]; benzene, 23° C.): 228 mg

Compound: [2H]C([2H])([2H])OC(=O)c1c(C(=O)OC([2H])([2H])[2H])c(C(C)(C)C)n([O])c1C(C)(C)C [Compound 3b]
ESR Line width ([1]; benzene, 23° C.): 172 mg

Compound: [2H]C([2H])([2H])C(c1c(C(=O)OC)c(C(=O)OC)c(C(C([2H])([2H])[2H])(C([2H])([2H])[2H])C([2H])([2H])[2H])n1[O])(C([2H])([2H])[2H])C([2H])([2H])[2H] [Compound 3c]
ESR Line width ([1]; benzene, 23° C.): 219 mg | influence of deuteration of the t-butyl groups alone on line width, 3a:3c ([1]; degassed benzene, 22° C.): almost no influence

Compound: [2H]C([2H])([2H])OC(=O)c1c(C(=O)OC([2H])([2H])[2H])c(C(C([2H])([2H])[2H])(C([2H])([2H])[2H])C([2H])([2H])[2H])n([O])c1C(C([2H])([2H])[2H])(C([2H])([2H])[2H])C([2H])([2H])[2H] [Compound 3d]
ESR Line width ([1]; benzene, 23° C.): 113 mg | decrease of line width by deuteration of the alkyl groups of the ester moiety, 3c:3d (factor) ([1]; degassed benzene, 22° C.): 1.9 | ESR Line width ([1]; degassed benzene, 22° C., high dilution): 113 mg | nitrogen coupling constant ([1]; in benzene): 4.4 G

ESR line width compared with 3b ([1]; upon treatment with NiOOH): almost identical to that of 3b
Compound: CC(C)(C)c1c(C(=O)O)c(C(=O)O)c(C(C)(C)C)n1O [Compound 4, 2.5-di-t-butyl-N-hydroxy-pyrrol-3,4-dicarboxylic acid]

ESR Line width ([2]; 3.4 mM in H2 O, 200 G): 120 mg | Overhauser enhancement ([3]; 3.4 mM in H2 O, 5 W microwave power): 164 | Half life ([4]; in water without exclusion of air): 5 days
Compound: Bis(8-carboxy-2,2,6,6-tetra(hydroxymethyl)benzo[2-d: 4,5-d']bis(1,3)dithiol-4-yl)-mono(8-carboxy-2,2,6,6-tetramethylbenzo[2-d: 4,5-d']-bis(1,3)dioxol-4-yl)) methyl sodium salt [Example 27]

ESR Line width ([2]; H2 O, 200 G): 433 mg
Compound: Bis(8-ethoxycarbonyl-2,2,6,6-tetra(hydroxymethyl)benzo[1,2-d: 4,5-d']bis(1,3)dithiol-4-yl)-mono(8-ethoxycarbonyl-2,2,6,6-tetramethylbenzo[1,2-d:4,5-d']-bis(1,3)dioxol-4-yl))methyl [Example 26]

ESR Line width ([2]; THF, 200 G): 325 mg | Overhauser enhancement ([3]; THF, 2.1 mM, 4 W microwave power): 156 | Half life ([4]; in acetonitrile without exclusion of air): 83.33 days
Compound: Bis-(8-ethoxycarbonyl-2,2,6,6-tetramethylbenzo[1,2-d: 4,5-d']-bis(1,3)dithiole-4-yl)-mono-(8-ethoxycarbonyl-2,2,6,6-tetramethylbenzo[1,2-d:4,5-d']-bis(1,3)dioxol-4-yl)methyl [Example 19]

ESR Line width ([2]; H2 O, 200 G): 105 mg | Overhauser enhancement ([3]; H2 O, 6.9 mM, 0.012 W microwave power): 219
Compound: Bis-(8-potassium carboxylate-2,2,6,6-tetramethylbenzo [1,2-d:4 5-d']-bis(1,3)dithiol-4-yl)-mono-(8-potassium carboxylate-2,2,6,6-tetramethylbenzo[1,2-d:4,5-d']-bis (1,3)dioxol-4-yl)methyl [Example 20]

Relaxivity at 400kHz ([5]; blood, 23° C.): 0.53 mM⁻¹ s⁻¹ | Relaxivity at 400kHz ([5]; blood, 37° C.): 0.44 mM⁻¹ s⁻¹ | Relaxivity at 400kHz ([5]; plasma, 23° C.): 0.48 mM⁻¹ s⁻¹ | Relaxivity at 400kHz ([5]; plasma, 37° C.): 0.45 mM⁻¹ s⁻¹ | Relaxivity ([5]; 23° C.): 0.26 mM⁻¹ s⁻¹ | Relaxivity ([5]; 37° C.): 0.20 mM⁻¹ s⁻¹ | T1 i.e. proton relaxivity ([6]; blood sample, 37° C.): 0.44 mM⁻¹ s⁻¹ | maximum Overhauser enhancement (i.e. at infinite VHF power and infinite radical concentration) ([6]; blood sample, 37° C.): 192 | A. (infinite concentration and power), DNP enhancement ([6]; blood, 37° C.): 192 | Relaxivity at infinite concentration and power ([6]; blood, 37° C.): 0.44 mM⁻¹ s⁻¹ | A. (infinite concentration and power), DNP enhancement ([6]; plasma, 37° C.): 231 | Relaxivity at infinite concentration and power ([6]; plasma, 37° C.): 0.32 mM⁻¹ s⁻¹ | A. (enhancement at infinite concentration and power) [6]: 278 | 2(3γe T1e)^-1, concentration dependent relaxation rate (peak-to-peak) ([7]; blood, 37° C.): 3.6 ± 0.5 mg/mM | 2(3γe T2e)^-1, concentration dependent relaxation rate (peak-to-peak) ([7]; blood, 37° C.): 21.5 ± 0.5 mg/mM | 2(3γe T1e)^-1, concentration dependent relaxation rate (peak-to-peak) ([7]; plasma, 37° C.): 2.7 ± 0.5 mg/mM | 2(3γe T2e)^-1, concentration dependent relaxation rate (peak-to-peak) ([7]; plasma, 37° C.): 9.8 ± 0.5 mg/mM | 2(3γe T1e)^-1, concentration dependent relaxation rate (peak-to-peak) [7, 9]: 2.6 ± 0.1 mg/mM | 2(3γe T2e)^-1, concentration dependent relaxation rate (peak-to-peak) [7, 9]: 11.1 ± 0.5 mg/mM | 2(3γe T1e)^-1, concentration dependent relaxation rate (peak-to-peak) [7, 10]: 2.8 ± 0.2 mg/mM | 2(3γe T2e)^-1, concentration dependent relaxation rate (peak-to-peak) [7, 10]: 8.0 ± 0.2 mg/mM | 2(3γe T1e)^-1, relaxation rate as a function of oxygen concentration (peak-to-peak) ([8]; blood, 23° C.): 250 mg/mM | 2(3γe T2e)^-1, relaxation rate as a function of oxygen concentration (peak-to-peak) ([8]; blood, 23° C.): 329 mg/mM | (γe T1e +L T2e)^-1, square root of slope of the inverse DNP curve: constant term ([8]; blood, 23° C.): 12.9 mg/mM | Lorentzian line broadening by oxygen ([8]; blood, 23° C.): 329 mG/mMo2 | 2(3γe T1e)^-1, relaxation rate as a function of oxygen concentration (peak-to-peak) ([8]; blood, 37° C.): 330 mg/mM | 2(3γe T2e)^-1, relaxation rate as a function of oxygen concentration (peak-to-peak) ([8]; blood, 37° C.): 428 mg/mM | (γe T1e +L T2e)^-1, square root of slope of the inverse DNP curve: constant term ([8]; blood, 37° C.): 15.0 mg/mM | 2(3γe T1e)^-1, relaxation rate as a function of oxygen concentration (peak-to-peak) ([8]; water, 23° C.): 301 mg/mM | 2(3γe T2e)^-1, relaxation rate as a function of oxygen concentration (peak-to-peak) ([8]; water, 23° C.): 369 mg/mM | (γe T1e +L T2e)^-1, square root of slope of the inverse DNP curve: constant term ([8]; water, 23° C.): 13.4 mg/mM | Lorentzian line broadening by oxygen ([8]; water, 23° C.): 369 mG/mMo2 | 2(3γe T1e)^-1, relaxation rate as a function of oxygen concentration (peak-to-peak) ([8]; water, 37° C.): 398 mg/mM | 2(3γe T2e)^-1, relaxation rate as a function of oxygen concentration (peak-to-peak) ([8]; water, 37° C.): 511 mg/mM | (γe T1e +L T2e)^-1, square root of slope of the inverse DNP curve: constant term ([8]; water, 37° C.): 14.2 mg/mM | Lorentzian line broadening by oxygen ([8]; water, 37° C.): 511 mG/mMo2
Compound: Bis-(8-sodium carboxylate-2,2,6,6-tetrakis-(hydroxy-^2 H2 -methyl)-benzo[1,2-d:4,5-d']-bis(1,3) dithiole-4-yl)-mono-(8-sodium carboxylate-2,2,6,6-tetramethylbenzo [1,2-d:4,5-d']-bis(1,3) dioxole-4-yl)methyl [deuterated hydroxy trityl]

ESR Line width ([2]; 1.5 mM in H2 O, 100 G): 100 mg
Compound: Tris(8-carboxy-2,2,6,6-tetrahydroxymethylbenzo[1,2-d: 4,5-d']bis(1,3)dithiole-4-yl)methyl sodium salt [Example 14]

Relaxivity ([5]; 23° C.): 0.21 mM⁻¹ s⁻¹ | Relaxivity ([5]; 37° C.): 0.15 mM⁻¹ s⁻¹ | A. (enhancement at infinite concentration and power) [6]: 266 | 2(3γe T1e)^-1, concentration dependent relaxation rate (peak-to-peak) [7, 9]: 13.2 ± 0.5 mg/mM | 2(3γe T2e)^-1, concentration dependent relaxation rate (peak-to-peak) [7, 9]: 35.4 ± 0.6 mg/mM | 2(3γe T1e)^-1, concentration dependent relaxation rate (peak-to-peak) [7, 10]: 17.7 ± 0.8 mg/mM | 2(3γe T2e)^-1, concentration dependent relaxation rate (peak-to-peak) [7, 10]: 33.1 ± 0.3 mg/mM
Compound: Tris-(8-sodium carboxylate-2,2,6,6-tetrakis-(^2 H3 -methyl)-benzo[1,2-d:4,5-d']-bis(1,3) dithiole)methyl [symmetric trityl]
